Laboratory results as given in patent US6680282B2 (priority 1997, dated 2004).

What was measured:
Pyricularia oryzae = assay: whole plant or invertebrate; format: in vivo; conditions: for rank (control effect, protective value from lesion number): 100 ppm spray, rice seedling (Jikkoku) 4-leaf stage, lesion number on fourth leaf 6 days after inoculation; for pest or weed control at 100 ppm: Pyricularia oryzae, foliar, 144 h, read-out: rank (control effect, protective value from lesion number)
Sphaerotheca fuliginea = assay: Test for control effect against powdery mildew of Cucurbitaceae (spray on cucumber seedlings); format: in vivo; conditions: 200 ppm spray, cucumber first foliage leaf, 10 days after inoculation
Excerpt: Test for Control Effect Against Powdery Mildew of Cucurbitaceae
A spray liquid comprising a test compound whose concentration was adjusted to be 200 ppm by dilution with water was sprayed to a cucumber grown in a vinyl pot of 3 cm in diameter when its first foliage leaf was developed. The air-dried cucumber seedling was inoculated with a conidium suspension of Sphaerotheca fuliginea. Thereafter, the cucumber seedling was transferred in an air-conditioned greenhouse. 10 Days after the inoculation, the disease severity was observed. The protective value was calculated by comparing the disease severity in a treated area with that in an untreated area. Then, control effect was ranked according to the following criterion.
B; protective value 50 to 79%

Compound	rank (control effect, protective value from lesion number) (Pyricularia oryzae)	rank (control effect, protective value from disease severity) (Sphaerotheca fuliginea)	pest or weed control at 100 ppm (Pyricularia oryzae)
CC(=O)Oc1c(C)c(C)nc2ccc(Oc3ccccc3)cc12 [Compound No. 136]	A (protective value ≧80%)	A (protective value ≧80%)	
CCC(C)c1ccc2nc3c(c(OC(C)=O)c2c1)CCC3 (stereo not shown) [Compound No. 153]	B (protective value 50 to 79%)	A (protective value ≧80%)	
CCC(C)c1cc(Cl)c2nc(C)c(C)c(OC(C)=O)c2c1 (stereo not shown) [Compound No. 214, 4-acetoxy-6-s-butyl-8-chloro-2,3-dimethylquinoline]		A (protective value ≧80%)	> 80%
CCCCc1cc(Cl)c2nc(C)c(C)c(OC(C)=O)c2c1 [Compound No. 216]	A (protective value ≧80%)	B (protective value 50 to 79%)	
CC(=O)Oc1c(C)c(C)nc2c(Cl)cc(C(C)(C)C)cc12 [Compound No. 218]	A (protective value ≧80%)	A (protective value ≧80%)	
CCc1cc(CC)c2nc(C)c(C)c(OC(C)=O)c2c1 [Compound No. 268]	A (protective value ≧80%)	B (protective value 50 to 79%)	
CCC(C)c1cc(CO)c2nc(C)c(C)c(OC(C)=O)c2c1 (stereo not shown) [Compound No. 340, 4-acetoxy-6-s-butyl-8-hydroxymethyl-2,3-dimethylquinoline]		A (protective value ≧80%)	> 80%
CCC(C)c1cc(CCl)c2nc(C)c(C)c(OC(C)=O)c2c1 (stereo not shown) [Compound No. 344, 4-acetoxy-6-s-butyl-8-chloromethyl-2,3-dimethylquinoline]		A (protective value ≧80%)	> 80%
CCC(C)c1cc(C=O)c2nc(C)c(C)c(OC(C)=O)c2c1 (stereo not shown) [Compound No. 356, 4-acetoxy-6-s-butyl-8-formyl-2,3-dimethylquinoline]		A (protective value ≧80%)	> 80%
CC(=O)Oc1c(C)c(C)nc2ccc(OC(C)C)cc12 [compound 24]	B (protective value 50 to 79%)	A (protective value ≧80%)	
CCCCc1ccc2nc(C)c(CCC)c(OC(C)=O)c2c1 [compound 45]	A (protective value ≧80%)	B (protective value 50 to 79%)	
CCC(C)c1ccc2nc(C)c(C)c(OC(C)=O)c2c1 (stereo not shown) [compound 55]	A (protective value ≧80%)	A (protective value ≧80%)	
CCC(=O)Oc1c(C)c(C)nc2ccc(C(C)CC)cc12 (stereo not shown) [compound 56]	A (protective value ≧80%)	A (protective value ≧80%)	
CCC(C)c1ccc2nc(C)c(C)c(OC(=O)c3ccccc3)c2c1 (stereo not shown) [compound 61]	A (protective value ≧80%)	B (protective value 50 to 79%)	
CCC(C)c1ccc2nc(C)c(C)c(OC(=O)OC)c2c1 (stereo not shown) [compound 65]	A (protective value ≧80%)	A (protective value ≧80%)	
CCOC(=O)Oc1c(C)c(C)nc2ccc(C(C)CC)cc12 (stereo not shown) [compound 66]	A (protective value ≧80%)	A (protective value ≧80%)	
CCCCCCCCOC(=O)Oc1c(C)c(C)nc2ccc(C(C)CC)cc12 (stereo not shown) [compound 67]	A (protective value ≧80%)	A (protective value ≧80%)	
CCC(C)c1ccc2nc(C)c(C)c(OC(=O)Oc3ccccc3)c2c1 (stereo not shown) [compound 68]	A (protective value ≧80%)	A (protective value ≧80%)	
CCC(C)c1ccc2nc(C)c(C)c(OC(=O)N(CC)CC)c2c1 (stereo not shown) [compound 72]	B (protective value 50 to 79%)	A (protective value ≧80%)	
CC(=O)Oc1c(C)c(C)nc2ccc(CC(C)C)cc12 [compound 93]	A (protective value ≧80%)	A (protective value ≧80%)	
CC(=O)Oc1c(C)c(C)nc2ccc(Br)cc12 [compound 185]	B (protective value 50 to 79%)	A (protective value ≧80%)	
CC(=O)Oc1c(C)c(C)nc2c(C)cc(Br)cc12 [compound 195]	A (protective value ≧80%)	A (protective value ≧80%)	
CC(=O)Oc1c(C)c(C)nc2ccc(Br)c(C)c12 [compound 197]	A (protective value ≧80%)	A (protective value ≧80%)	
